In ChEMBL document CHEMBL4422667, “Synthetic derivatives of the natural product 13-amino 2-desoxy-4-epi-pulchellin inhibit STAT3 signaling and induce G2/M arrest and death of colon cancer cells” (Bioorg Med Chem Lett, 2019):
Converted amounts (≈) assume the structure as drawn.

Tests used:
[1] = system: HCT-116; experiment: cells; settings: Homo sapiens, HCT-116, 72 h
Description: Cytotoxicity against human HCT116 cells assessed as reduction in cell viability after 72 hrs by MTT assay

[2] = system: HT-29; experiment: cells; settings: Homo sapiens, HT-29, 72 h
Description: Cytotoxicity against human HT-29 cells assessed as reduction in cell viability after 72 hrs by MTT assay

[3] = Aqueous solubility of compound at 25 degC; assay type: physicochemical; settings: water

| IC50 [1] [µM] | IC50 [2] [µM] | solubility [3] [µg/mL] | Compound |
| --- | --- | --- | --- |
| 18.7 |  |  | C[C@@H]1C[C@@H]2OC(=O)[C@@H](CN3CCOCC3)[C@H]2C[C@]2(C)[C@@H](O)CC[C@@H]12 (relative stereo) |
| > 30 |  |  | C[C@@H]1C[C@@H]2OC(=O)[C@@H](CN3CCN(C)CC3)[C@H]2C[C@]2(C)[C@@H](O)CC[C@@H]12 (relative stereo) |
| 5.36 | 3.19 |  | C[C@@H]1C[C@@H]2OC(=O)[C@@H](CN3CCC(O)CC3)[C@H]2C[C@]2(C)[C@@H](O)CC[C@@H]12 (relative stereo) |
| 5.46 | 3.45 |  | CCN(CC)C[C@@H]1C(=O)O[C@H]2C[C@@H](C)[C@@H]3CC[C@H](O)[C@@]3(C)C[C@@H]21 (relative stereo) |
| > 30 |  |  | CCCCNC[C@@H]1C(=O)O[C@H]2C[C@@H](C)[C@@H]3CC[C@H](O)[C@@]3(C)C[C@@H]21 (relative stereo) |
| 17.8 |  |  | CC(C)NC[C@@H]1C(=O)O[C@H]2C[C@@H](C)[C@@H]3CC[C@H](O)[C@@]3(C)C[C@@H]21 (relative stereo) |
| 22.8 |  |  | C[C@@H]1C[C@@H]2OC(=O)[C@@H](CNCCN3CCCC3)[C@H]2C[C@]2(C)[C@@H](O)CC[C@@H]12 (relative stereo) |
| 15.5 |  |  | C[C@@H]1C[C@@H]2OC(=O)[C@@H](CN3CCNCC3)[C@H]2C[C@]2(C)[C@@H](O)CC[C@@H]12 (relative stereo) |
| > 30 |  |  | CC(O)CNC[C@@H]1C(=O)O[C@H]2C[C@@H](C)[C@@H]3CC[C@H](O)[C@@]3(C)C[C@@H]21 (mixture of isomers) |

The next lines start with the molecule.

| Compound | IC50 [1] [µM] | IC50 [2] [µM] | solubility [3] [µg/mL] |
| --- | --- | --- | --- |
| C[C@@H]1C[C@@H]2OC(=O)[C@@H](CN3CCC(N(C)C)CC3)[C@H]2C[C@]2(C)[C@@H](O)CC[C@@H]12 (relative stereo) | 12.2 |  |  |
| C=C1C(=O)O[C@H]2C[C@@H](C)[C@@H]3CC[C@H](O)[C@@]3(C)C[C@H]12 [PSEUDOGUAIANOLIDE] | 4.43 | 3.37 | 200 (≈ 799 µM) |
| COC(CNC[C@@H]1C(=O)O[C@H]2C[C@@H](C)[C@@H]3CC[C@H](O)[C@@]3(C)C[C@@H]21)OC (relative stereo) | 27.5 |  |  |
| C[C@@H]1C[C@@H]2OC(=O)[C@@H](CN3CCCCC3)[C@H]2C[C@]2(C)[C@@H](O)CC[C@@H]12 (relative stereo) | 8.39 | 3.86 |  |
| C[C@@H]1C[C@@H]2OC(=O)[C@@H](CNCCCO)[C@H]2C[C@]2(C)[C@@H](O)CC[C@@H]12 (relative stereo) | > 30 |  |  |
| CCCNC[C@@H]1C(=O)O[C@H]2C[C@@H](C)[C@@H]3CC[C@H](O)[C@@]3(C)C[C@@H]21 (relative stereo) | > 30 |  |  |
| C[C@@H]1C[C@@H]2OC(=O)[C@@H](CN(C)C)[C@H]2C[C@]2(C)[C@@H](O)CC[C@@H]12 (relative stereo) | 5.18 | 3.31 |  |
| CCCCCCNC[C@@H]1C(=O)O[C@H]2C[C@@H](C)[C@@H]3CC[C@H](O)[C@@]3(C)C[C@@H]21 (relative stereo) | > 30 |  |  |
| CNC[C@@H]1C(=O)O[C@H]2C[C@@H](C)[C@@H]3CC[C@H](O)[C@@]3(C)C[C@@H]21 (relative stereo) | > 30 |  |  |
| C=C1C(=O)O[C@@H]2C3O[C@]3(C)CC/C=C(\C)CC[C@@H]12 (stereo not given in full) | 4.94 | 3.38 |  |
| C[C@@H]1C[C@@H]2OC(=O)[C@@H](CNCCCN(C)C)[C@H]2C[C@]2(C)[C@@H](O)CC[C@@H]12 (relative stereo) | > 30 |  |  |
| CCN(C)C[C@@H]1C(=O)O[C@H]2C[C@@H](C)[C@@H]3CC[C@H](O)[C@@]3(C)C[C@@H]21 (relative stereo) | 2.4 | 1.62 |  |
| C[C@@H]1C[C@@H]2OC(=O)[C@@H](CNCCN(C)C)[C@H]2C[C@]2(C)[C@@H](O)CC[C@@H]12 (mixture of isomers) | > 30 |  |  |
